ChEMBL document CHEMBL6109054, “Development of novel GI-centric prostaglandin E2 receptor type 4 (EP4) agonist prodrugs as treatment for ulcerative colitis and other intestinal inflammatory diseases” (Bioorg Med Chem Lett, 2025)
Active and inactive are the calls of the source. The calls are words filed in the database; no cut-off is given here.

Key:
[1] = Elimination half-life in rat; type: ADME; conditions: in vivo, read-out: beta t1/2
[2] = Prodrug conversion in human plasma assessed as 7(R)-(2-((R,E)-4,4-difluoro-3-hydroxy-4-phenyl)but-1-en-1-yl)-5-oxopyrrolidin-1-yl)heptanoic acid release by measuring half-life; type: ADME, cell-free
[3] = Prodrug conversion in mouse gut assessed as 7(R)-(2-((R,E)-4,4-difluoro-3-hydroxy-4-phenyl)but-1-en-1-yl)-5-oxopyrrolidin-1-yl)heptanoic acid formation by measuring half-life at 100 uM; type: ADME, tissue-based
[4] = Drug uptake in mouse blood administered as rectal dose and measured after 1 hrs; type: ADME, tissue-based; conditions: route rec, read-out: Ct
[5] = Toxicity in rectal dosed mouse assessed as body weight loss administered for 8 days; type: organism-based; conditions: in vivo, other, 192 h, route rec, time 8 day
[6] = Prodrug conversion in mouse blood assessed as 7(R)-(2-((R,E)-4,4-difluoro-3-hydroxy-4-phenyl)but-1-en-1-yl)-5-oxopyrrolidin-1-yl)heptanoic acid formation administered orally with 1 mg/kg equivalent dose of active drug and measured after 0.5 hrs by LC/MS/MS analysis; type: ADME, organism-based; conditions: in vivo, po
[7] = Prodrug conversion in mouse blood assessed as 7(R)-(2-((R,E)-4,4-difluoro-3-hydroxy-4-phenyl)but-1-en-1-yl)-5-oxopyrrolidin-1-yl)heptanoic acid formation administered orally with 1 mg/kg equivalent dose of active drug and measured for 1 to 4 hrs by LC/MS/MS analysis; type: ADME, organism-based; conditions: in vivo, po, time 1-4 hrs
[8] = Prodrug conversion in mouse blood assessed as concentration of 7(R)-(2-((R,E)-4,4-difluoro-3-hydroxy-4-phenyl)but-1-en-1-yl)-5-oxopyrrolidin-1-yl)heptanoic acid administered as rectal dose and measured after 1 hr; type: ADME, tissue-based; conditions: other, route rec
Mus musculus [9] = assay: Anti-inflammatory activity in rectal dosed DSS-induced mouse model assessed as reduction in inflammatory cell infiltration treated as prodrug for 8 days; type: functional, organism-based; conditions: route rec, time 8.0 day
[10] = Prodrug conversion in blood of DSS-induced colitis mouse model assessed as 7(R)-(2-((R,E)-4,4-difluoro-3-hydroxy-4-phenyl)but-1-en-1-yl)-5-oxopyrrolidin-1-yl)heptanoic acid formation administered as rectal dose and measured after 4 days by LC/MS/MS analysis; type: ADME, tissue-based; conditions: other, 96 h, route rec, time 4 day
[11] = Stability of compound in PBS buffer at pH 7.2 at 200 ug/mL measured over 170 hrs; type: physicochemical; conditions: pH 7.2, 170 h, at 200 µg/mL
[12] = Stability of compound in PBS buffer at pH 9 at 200 ug/mL measured over 170 hrs; type: physicochemical; conditions: pH 9, 170 h, at 200 µg/mL
[13] = Prodrug release in PBS buffer at pH 2 assessed as release of 7(R)-(2-((R,E)-4,4-difluoro-3-hydroxy-4-phenyl)but-1-en-1-yl)-5-oxopyrrolidin-1-yl)heptanoic acid by measuring half-life; type: ADME
[14] = Prodrug conversion in mouse serum assessed as 7(R)-(2-((R,E)-4,4-difluoro-3-hydroxy-4-phenyl)but-1-en-1-yl)-5-oxopyrrolidin-1-yl)heptanoic acid release by measuring half-life; type: ADME, cell-free
[15] = Prodrug conversion in mouse colon assessed as 7(R)-(2-((R,E)-4,4-difluoro-3-hydroxy-4-phenyl)but-1-en-1-yl)-5-oxopyrrolidin-1-yl)heptanoic acid formation by measuring half-life; type: ADME, tissue-based; conditions: in vivo
[16] = Prodrug conversion in mouse ileum assessed as 7(R)-(2-((R,E)-4,4-difluoro-3-hydroxy-4-phenyl)but-1-en-1-yl)-5-oxopyrrolidin-1-yl)heptanoic acid formation by measuring half-life; type: ADME, tissue-based; conditions: in vivo
Mus musculus [17] = assay: Anti-inflammatory activity in rectal dosed DSS-induced colitis mouse model assessed as change in disease activity index (DAI) treated as prodrug for 8 days; type: functional, organism-based; conditions: route rec, time 8.0 day
Mus musculus [18] = assay: Anti-inflammatory activity in rectal dosed DSS-induced colitis mouse model assessed as increase in colon length treated as prodrug for 8 days; type: functional, organism-based; conditions: route rec, time 8.0 day
Mus musculus [19] = assay: Anti-inflammatory activity in rectal dosed DSS-induced mouse model assessed as reduction in epithelial cell damage treated as prodrug for 8 days; type: functional, organism-based; conditions: route rec, time 8.0 day
[20] = Prodrug conversion in blood of DSS-induced colitis mouse model assessed as 7(R)-(2-((R,E)-4,4-difluoro-3-hydroxy-4-phenyl)but-1-en-1-yl)-5-oxopyrrolidin-1-yl)heptanoic acid formation administered as rectal dose and measured after 7 days by LC/MS/MS analysis; type: ADME, tissue-based; conditions: other, 168 h, route rec, time 7 day

Structure (SMILES): O=C1CC[C@H](/C=C/[C@@H](O)C(F)(F)c2ccccc2)N1CCCCCCc1nnn[nH]1
- half-life [1]: > 24 h

Structure (SMILES): CCCC(O[C@H](/C=C/[C@H]1CCC(=O)N1CCCCCCC(=O)OCC)C(F)(F)c1ccccc1)OP(=O)(O)O (stereo partly specified)
- t1/2 [2]: 12.7 h
- t1/2 [3]: < 0.083 h

Structure (SMILES): O=C(O)CCCCCCN1C(=O)CC[C@@H]1/C=C/[C@@H](O)C(F)(F)c1ccccc1
- concentration at 1 h [4]: 35.8 ng/mL
- Activity [5]: Non-toxic
- half-life [1]: < 1 h

Structure (SMILES): O=C(O)CCCCCCN1C(=O)CC[C@@H]1/C=C/[C@@H](OC(OP(=O)(O)O)c1ccccc1)C(F)(F)c1ccccc1 (stereo partly specified)
- Drug metabolism [6]: metabolite_detected
- Drug metabolism [7]: metabolite_detected
- Drug metabolism [8]: 2.6 ng/mL

Structure (SMILES): CCOC(=O)CCCCCCN1C(=O)CC[C@@H]1/C=C/[C@@H](OC(C)OP(=O)(O)O)C(F)(F)c1ccccc1 (stereo partly specified)
- t1/2 [2]: 10.4 h
- t1/2 [3]: < 0.083 h

Structure (SMILES): CCOC(=O)CCCCCCN1C(=O)CC[C@@H]1/C=C/[C@@H](OC(OP(=O)(O)O)c1ccccc1)C(F)(F)c1ccccc1 (stereo partly specified)
- t1/2 [2]: 45 h
- t1/2 [3]: 0.667 h

Structure (SMILES): O=C(O)CCCCCCN1C(=O)CC[C@@H]1/C=C/[C@@H](OCOP(=O)(O)O)C(F)(F)c1ccccc1
- Activity (Mus musculus [9]): Active
- Drug metabolism [10]: 1.5 ng/mL
- Stability [11]: Stable
- Stability [12]: Stable
- t1/2 [13]: ~ 300 hr
- t1/2 [2]: 1.5 h
- t1/2 [14]: 3.3 h
- t1/2 [3]: < 0.083 h
- t1/2 [15]: 0.333 h
- t1/2 [16]: 9 min
- Drug metabolism [6]: metabolite_detected
- Drug metabolism [7]: metabolite_detected
- Drug metabolism [8]: 5.4 ng/mL
- Activity [5]: Non-toxic
- Activity (Mus musculus [17]): Not active; Little Or No Change Observed
- Activity (Mus musculus [18]): Active
- Activity (Mus musculus [19]): Active
- Drug metabolism [20]: 1.5 ng/mL
